Here are results for 15 molecules from patent US11739098B2 (BRISTOL-MYERS SQUIBB COMPANY, priority 2017, dated 2023).

What all share (format): cell-based
One assay deals with T1, human TLR9 (Homo sapiens, UniProt Q9NR96).
T1 construct: host or cells: HEK-Blue cells (HEK293-derived reporter line)
T1 sequence (Q9NR96 26-1032): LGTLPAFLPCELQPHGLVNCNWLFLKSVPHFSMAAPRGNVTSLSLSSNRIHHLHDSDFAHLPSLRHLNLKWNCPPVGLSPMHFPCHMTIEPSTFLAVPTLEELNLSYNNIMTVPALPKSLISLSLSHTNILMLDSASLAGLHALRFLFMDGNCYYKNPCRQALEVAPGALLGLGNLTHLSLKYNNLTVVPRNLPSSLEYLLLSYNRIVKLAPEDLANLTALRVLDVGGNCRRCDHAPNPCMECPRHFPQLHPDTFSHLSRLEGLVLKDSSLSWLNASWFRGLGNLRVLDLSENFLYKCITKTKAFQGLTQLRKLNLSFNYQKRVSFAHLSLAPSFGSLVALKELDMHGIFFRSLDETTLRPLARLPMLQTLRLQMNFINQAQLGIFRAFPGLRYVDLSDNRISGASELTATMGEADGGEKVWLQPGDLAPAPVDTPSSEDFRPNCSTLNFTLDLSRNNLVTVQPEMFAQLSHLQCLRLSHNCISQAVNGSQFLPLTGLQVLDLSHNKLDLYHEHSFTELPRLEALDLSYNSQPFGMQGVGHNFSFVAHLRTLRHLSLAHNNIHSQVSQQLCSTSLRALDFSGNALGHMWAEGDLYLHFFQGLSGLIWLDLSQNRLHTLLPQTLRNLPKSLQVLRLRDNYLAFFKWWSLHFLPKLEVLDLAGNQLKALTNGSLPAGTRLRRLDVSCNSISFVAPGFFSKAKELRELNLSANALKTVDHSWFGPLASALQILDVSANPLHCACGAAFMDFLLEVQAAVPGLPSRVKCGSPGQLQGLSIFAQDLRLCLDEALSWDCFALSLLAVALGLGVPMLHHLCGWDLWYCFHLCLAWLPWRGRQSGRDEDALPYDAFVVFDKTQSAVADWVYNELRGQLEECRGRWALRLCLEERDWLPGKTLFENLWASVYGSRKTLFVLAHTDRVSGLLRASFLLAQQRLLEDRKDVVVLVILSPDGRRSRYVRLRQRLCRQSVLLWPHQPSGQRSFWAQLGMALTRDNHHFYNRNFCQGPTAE
The assay can be described thus: TLR9 inhibition reporter assay (HEK-Blue cells, SEAP reporter, ODN2006 stimulation). The following applies: HEK-Blue cells overexpressing human TLR9, SEAP reporter, ODN2006 5 nM. The essentials: (§1)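 Agonists (final): TLR7 gardiquimod 7.5 μM; TLR8 R848 15.9 μM; TLR9 ODN2006 5 nM. HEK-Blue reporter cells, 30 min RT compound pre-incubation, 0.05 nM–50 μM dose range, 22 h at 37 °C, colorimetric SEAP detection medium. % inhibition relative to agonist+DMSO and known-inhibitor wells.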
For orientation: Reporter assays use an easily measured gene product as a stand-in for the process of interest.

In the next assay the target is T2, human TLR7 (Homo sapiens, UniProt Q9NYK1).
T2 construct: host or cells: HEK-Blue cells (HEK293-derived reporter line)
T2 sequence (Q9NYK1 27-1049): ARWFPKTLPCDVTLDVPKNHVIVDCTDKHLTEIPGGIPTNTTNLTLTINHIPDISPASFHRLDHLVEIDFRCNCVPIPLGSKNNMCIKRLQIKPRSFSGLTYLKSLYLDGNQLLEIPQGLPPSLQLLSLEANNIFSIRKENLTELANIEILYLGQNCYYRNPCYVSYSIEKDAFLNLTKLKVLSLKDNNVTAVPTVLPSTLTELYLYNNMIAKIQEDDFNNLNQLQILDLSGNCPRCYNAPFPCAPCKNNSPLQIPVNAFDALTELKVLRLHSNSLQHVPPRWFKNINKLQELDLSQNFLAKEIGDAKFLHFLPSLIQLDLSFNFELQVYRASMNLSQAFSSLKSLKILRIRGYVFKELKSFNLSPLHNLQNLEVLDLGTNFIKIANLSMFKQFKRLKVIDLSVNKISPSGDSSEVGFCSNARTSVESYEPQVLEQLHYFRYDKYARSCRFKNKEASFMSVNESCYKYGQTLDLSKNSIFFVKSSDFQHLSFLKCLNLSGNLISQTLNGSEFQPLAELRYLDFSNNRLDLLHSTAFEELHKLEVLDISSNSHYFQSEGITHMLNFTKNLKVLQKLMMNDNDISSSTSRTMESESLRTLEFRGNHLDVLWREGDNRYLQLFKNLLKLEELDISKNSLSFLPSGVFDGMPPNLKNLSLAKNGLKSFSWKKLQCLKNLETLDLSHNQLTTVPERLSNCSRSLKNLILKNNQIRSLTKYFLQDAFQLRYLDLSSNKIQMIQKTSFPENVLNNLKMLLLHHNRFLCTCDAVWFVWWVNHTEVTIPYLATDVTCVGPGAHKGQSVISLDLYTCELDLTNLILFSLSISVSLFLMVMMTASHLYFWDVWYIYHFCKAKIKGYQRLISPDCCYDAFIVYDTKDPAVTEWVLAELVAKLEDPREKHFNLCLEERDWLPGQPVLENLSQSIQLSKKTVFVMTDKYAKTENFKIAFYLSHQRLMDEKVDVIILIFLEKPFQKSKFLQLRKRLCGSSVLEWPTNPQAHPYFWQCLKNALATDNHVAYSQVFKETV
The assay can be described thus: TLR7 inhibition reporter assay (HEK-Blue cells, SEAP reporter, gardiquimod stimulation). The following applies: HEK-Blue cells overexpressing human TLR7, SEAP reporter, gardiquimod 7.5 μM. The essentials:
as §1

The target in another assay is T3, human TLR8 (Homo sapiens, UniProt Q9NR97).
T3 construct: host or cells: HEK-Blue cells (HEK293-derived reporter line)
T3 sequence (Q9NR97 27-1041): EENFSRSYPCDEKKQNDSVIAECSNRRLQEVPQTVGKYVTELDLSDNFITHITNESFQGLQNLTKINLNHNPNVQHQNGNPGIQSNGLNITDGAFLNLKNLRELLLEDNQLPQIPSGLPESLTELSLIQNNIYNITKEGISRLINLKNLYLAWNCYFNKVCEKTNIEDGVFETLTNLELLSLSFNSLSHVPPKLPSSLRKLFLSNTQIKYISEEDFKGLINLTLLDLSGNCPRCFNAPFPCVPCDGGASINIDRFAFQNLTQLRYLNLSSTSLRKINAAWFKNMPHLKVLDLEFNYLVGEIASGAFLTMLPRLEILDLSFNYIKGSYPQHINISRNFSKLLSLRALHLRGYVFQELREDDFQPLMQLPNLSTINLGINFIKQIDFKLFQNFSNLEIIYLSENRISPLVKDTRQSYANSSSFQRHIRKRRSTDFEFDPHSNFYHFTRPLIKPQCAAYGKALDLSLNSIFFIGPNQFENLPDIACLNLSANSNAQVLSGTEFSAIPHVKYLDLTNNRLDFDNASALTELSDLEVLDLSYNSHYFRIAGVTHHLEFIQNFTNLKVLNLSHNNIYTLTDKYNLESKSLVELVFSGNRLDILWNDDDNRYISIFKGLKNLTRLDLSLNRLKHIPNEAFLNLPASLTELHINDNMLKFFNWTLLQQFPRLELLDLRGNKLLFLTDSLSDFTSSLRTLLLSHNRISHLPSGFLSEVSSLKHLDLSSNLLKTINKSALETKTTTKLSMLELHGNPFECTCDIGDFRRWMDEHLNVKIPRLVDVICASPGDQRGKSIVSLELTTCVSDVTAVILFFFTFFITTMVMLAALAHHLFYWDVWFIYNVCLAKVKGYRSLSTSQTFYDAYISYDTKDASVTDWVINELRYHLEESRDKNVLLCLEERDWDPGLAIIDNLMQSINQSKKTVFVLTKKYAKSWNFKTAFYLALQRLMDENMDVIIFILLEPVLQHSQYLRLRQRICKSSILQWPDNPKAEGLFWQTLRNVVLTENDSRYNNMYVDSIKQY
Kind of assay: TLR8 inhibition reporter assay (HEK-Blue cells, SEAP reporter, R848 stimulation). The following applies: HEK-Blue cells overexpressing human TLR8, SEAP reporter, R848 15.9 μM. The gist of the method: as §1

The term IC50 denotes the point on the concentration scale where inhibition reaches its midpoint. A lower IC50 goes with greater potency. Regarding `CCc1c(-c2ccnc3nn[nH]c23)[nH]c2ccc(C3CCNCC3)cc12` [Example 56, 7-(3-ethyl-5-(piperidin-4-yl)-1H-indol-2-yl)-1H-[1,2,3]triazolo[4,5-b] pyridine], the IC50 against human TLR9, on human TLR7 and against human TLR8 was 1 to 50 µM each time.
As for `CC(C)c1c(-c2ccnc3[nH]c(=O)[nH]c23)[nH]c2ccc(C3CCNCC3)cc12` [Example 57, 7-(3-isopropyl-5-(piperidin-4-yl)-1H-indol-2-yl)-1,3-dihydro-2H-imidazo[4,5-b]pyridin-2-one], the IC50 on human TLR9 fell in the range of 1 to 50 µM; against human TLR7, 0.1 to 1 µM; on human TLR8, 1 to 50 µM.
Regarding `CC(C)c1c(-c2ccnc3[nH]c(=O)oc23)[nH]c2ccc(C3CCNCC3)cc12` [Example 58, 7-(3-isopropyl-5-(piperidin-4-yl)-1H-indol-2-yl)oxazolo[4,5-b]pyridin-2(3H)-one], the IC50 against human TLR9, against human TLR7 and against human TLR8 was 1 to 50 µM throughout.
For `CCc1c(-c2ccnc3[nH]cnc23)[nH]c2ccc(C3CCNCC3)cc12` [Example 59, 7-(3-ethyl-5-(piperidin-4-yl)-1H-indol-2-yl)-3H-imidazo[4,5-b]pyridine], the IC50 on human TLR9 was 0.1 to 1 µM; against human TLR7, less than 0.1 µM; on human TLR8, less than 0.1 µM.
Take `Cc1c(-c2ccnc3[nH]cnc23)[nH]c2ccc(C3CCNCC3)cc12` [Example 60, 7-(3-methyl-5-(piperidin-4-yl)-1H-indol-2-yl)-3H-imidazo[4,5-b]pyridine]: the IC50 against human TLR9 is 0.1 to 1 µM; at human TLR7, less than 0.1 µM; against human TLR8, 0.1 to 1 µM.
On to `CC(C)c1c(-c2ccnc3[nH]cnc23)[nH]c2ccc(C3CCNCC3)cc12` [Example 61, 7-(3-isopropyl-5-(piperidin-4-yl)-1H-indol-2-yl)-3H-imidazo[4,5-b]pyridine], for which the figures for the IC50 against human TLR9, against human TLR7 and on human TLR8 were 0.1 to 1 µM, less than 0.1 µM and less than 0.1 µM, respectively.
As for `CCc1c(-c2cnc3cn[nH]c3c2)[nH]c2ccc(C3CCNCC3)cc12` [Example 62, 6-(3-ethyl-5-(piperidin-4-yl)-1H-indol-2-yl)-1H-pyrazolo[4,3-b]pyridine], the IC50 on human TLR9, on human TLR7 and against human TLR8 was 0.1 to 1 µM throughout.
Consider `CC(C)c1c(-c2cnc3cn[nH]c3c2)[nH]c2ccc(C3CCNCC3)cc12` [Example 63, 6-(3-isopropyl-5-(piperidin-4-yl)-1H-indol-2-yl)-1H-pyrazolo[4,3-b]pyridine], for which the results for the IC50 on human TLR9, against human TLR7 and against human TLR8 were 0.1 to 1 µM, less than 0.1 µM and less than 0.1 µM, respectively.
As for `CC(C)c1c(-c2cnc3ncccn23)[nH]c2ccc(C3CCNCC3)cc12` [Example 64, 3-(3-isopropyl-5-(piperidin-4-yl)-1H-indol-2-yl)imidazo[1,2-a]pyrimidine], the results for the concentration for half-maximal inhibition (IC50) against human TLR9, against human TLR7 and against human TLR8 were 0.1 to 1 µM, less than 0.1 µM and less than 0.1 µM, respectively.
Regarding `CC(C)c1c(-c2ccc3cc[nH]c3c2)[nH]c2ccc(C3CCNCC3)cc12` [Example 65, 3-isopropyl-5-(piperidin-4-yl)-1H,1′H-2,6′-biindole], the IC50 against human TLR9, against human TLR7 and at human TLR8 was 1 to 50 µM throughout.
With `CC(C)c1c(-c2ccc3[nH]ccc3c2)[nH]c2ccc(C3CCNCC3)cc12` [Example 66, 3-isopropyl-5-(piperidin-4-yl)-1H,1′H-2,5′-biindole], the IC50 at human TLR9, against human TLR7 and against human TLR8 was 1 to 50 µM in each case.
On to `CC(C)c1c(-c2ccc3occc3c2)[nH]c2ccc(C3CCNCC3)cc12` [Example 67, 2-(benzofuran-5-yl)-3-isopropyl-5-(piperidin-4-yl)-1H-indole], for which the IC50 against human TLR9 lay in the range of 1 to 50 µM; at human TLR7, 0.1 to 1 µM; on human TLR8, 0.1 to 1 µM.
Turning to `CC(C)c1c(-c2ccnc3c2NC(=O)CO3)[nH]c2ccc(C3CCNCC3)cc12` [Example 68, 8-(3-isopropyl-5-(piperidin-4-yl)-1H-indol-2-yl)-1H-pyrido[2,3-b][1,4]oxazin-2(3H)-one], the IC50 against human TLR9, at human TLR7 and on human TLR8 was 1 to 50 µM throughout.
For the molecule `CC(C)c1c(-c2ccnc3c2CC(=O)N3)[nH]c2ccc(C3CCNCC3)cc12` [Example 69, 4-(3-isopropyl-5-(piperidin-4-yl)-1H-indol-2-yl)-1,3-dihydro-2H-pyrrolo[2,3-b]pyridin-2-one], the IC50 on human TLR9 is 0.1 to 1 µM; against human TLR7 it was 0.1 to 1 µM; against human TLR8, less than 0.1 µM.
For the molecule `Cc1cc(-c2[nH]c3ccc(C4CCNCC4)cc3c2C(C)C)cn2nncc12` [Example 70, 6-(3-isopropyl-5-(piperidin-4-yl)-1H-indol-2-yl)-4-methyl-[1,2,3]triazolo[1,5-a]pyridine], the IC50 against human TLR9 was in the range of 1 to 50 µM; at human TLR7, 0.1 to 1 µM; at human TLR8, 0.1 to 1 µM.
